Assay results as given in PubChem BioAssay (NCI).
Several values for one entry are separate records, joined by “and”; a condition that tells them apart may be missing. Identical values can stand only once.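 Test compounds were applied to cells in 96-well plates for 48 hours at 5 doses. The concentration for 50% growth inhibition is given as GI50. TGI is the concentration that stops growth completely.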

What follows are molecules tested on T-47D breast (assay: NCI anticancer screen, dose series, 48 h).

Row | SMILES | GI50 | TGI
1 | Cc1nn(-c2ccc(Cl)cc2)c2ncnc(N/N=C/c3ccccc3O)c12 | 2.09 µM and 0.89 µM | > 100 µM and 23.5 µM
2 | COc1ccc2c(c1)C(=O)c1c-2c(Nc2ccccc2OC)nc2ccccc12 | > 100 µM | > 100 µM
3 | COc1ccc2c(N)ncc(C#Cc3cc(C(=O)Nc4ccc(CN5CCN(C)CC5)c(C(F)(F)F)c4)cnc3C)c2c1 | 13.5 µM | 25.4 µM
4 | COc1cc2c(N3CCN(C(=O)Nc4ccc(OC(C)C)cc4)CC3)ncnc2cc1OCCCN1CCCCC1 | 16.6 µM | 61.5 µM
5 | Nc1ncc(Cc2ccc3c(c2)OCO3)c(N)n1 |  | > 100 µM
6 | c1ccc(-c2[nH]ncc2-c2ccnc(-c3ccc(OCCn4ccnc4)cc3)c2)nc1 | 5.68 µM | > 25 µM
7 | O=C1c2cccc(Oc3ccccc3)c2C(=O)c2cccc(Oc3ccccc3)c21 | > 100 µM | > 100 µM
8 | O=C(OCc1ccc2c(Br)cc(Br)c(O)c2n1)c1cc2ccccc2[nH]1 | 1.91 µM | 5.29 µM
9 | CC(C)(CO)CNC(=O)c1ccc2[nH]c(O)c(N=Nc3ccc(S(N)(=O)=O)cc3)c2c1 | > 25 µM | > 25 µM
10 | Cc1cc(O)c2c(c1)C(=O)C=CC2=O |  | 7.47 µM and 16.4 µM
11 | CC1(C)N=C(N)N=C(N)N1c1ccc(CCC(=O)Nc2ccc(S(=O)(=O)F)cc2)cc1 | 16.2 µM | > 100 µM
12 | N#CC1(c2ccc(NC(=O)c3cccnc3NCc3ccncc3)cc2)CCCC1 | 4.15 µM | 49.7 µM
13 | Cn1nccc1Nc1nccc(-c2ccn([C@H](CO)c3ccc(Cl)c(F)c3)c(=O)c2)n1 | 26.5 µM | > 100 µM
14 | N#CC1c2ccccc2C=CN1C(=O)CCCl (configuration not stated) | 3.65 µM | 17.1 µM
15 | O=C1NC(=N[C@@H](CO)c2ccccc2)S/C1=C\c1ccc2ncccc2c1 | 15.5 µM | > 25 µM
16 | O=C1/C(=C/c2ccc(Cl)c(Cl)c2)CN(C(=O)CCN2CCC(=NO)CC2)C/C1=C\c1ccc(Cl)c(Cl)c1 | 1.1 µM | 3.59 µM
17 | CCN(CC)CCCNc1ccc(C)c2sc3ccccc3c(=O)c12 | 0.492 µM | 2.55 µM
18 | CCNc1nc(O)c(/C=C2\C=Nc3ncccc32)s1 | 2.02 µM | 7.62 µM
19 | O=C(/C=C/C12c3ccccc3C(c3ccccc31)C1C(=O)NC(=O)C12)c1ccccn1 (configuration not stated) | 1.73 µM | 5.26 µM
20 | CC1=C(C(=O)Nc2ccccc2)C(c2ccc(N(C)C)cc2)C(C(=O)Nc2ccccc2)=C(C)N1 |  | > 93.6 µM

The molecules below were run on TK-10 renal (assay: NCI anticancer screen, dose series, 48 h).

Row | SMILES | GI50 | TGI
21 | Cc1nn(-c2ccc(Cl)cc2)c2ncnc(N/N=C/c3ccccc3O)c12 | 2.33 µM and 1.86 µM | 63.4 µM and > 100 µM
22 | COc1ccc2c(c1)C(=O)c1c-2c(Nc2ccccc2OC)nc2ccccc12 | > 100 µM | > 100 µM
23 | COc1ccc2c(N)ncc(C#Cc3cc(C(=O)Nc4ccc(CN5CCN(C)CC5)c(C(F)(F)F)c4)cnc3C)c2c1 | 0.821 µM | 2.19 µM
24 | COc1cc2c(N3CCN(C(=O)Nc4ccc(OC(C)C)cc4)CC3)ncnc2cc1OCCCN1CCCCC1 | 38.9 µM | > 100 µM
25 | Nc1ncc(Cc2ccc3c(c2)OCO3)c(N)n1 |  | > 100 µM
26 | c1ccc(-c2[nH]ncc2-c2ccnc(-c3ccc(OCCn4ccnc4)cc3)c2)nc1 | > 25 µM | > 25 µM
27 | O=C1c2cccc(Oc3ccccc3)c2C(=O)c2cccc(Oc3ccccc3)c21 | > 100 µM | > 100 µM
28 | O=C(OCc1ccc2c(Br)cc(Br)c(O)c2n1)c1cc2ccccc2[nH]1 | 1.18 µM | 2.43 µM
29 | CC(C)(CO)CNC(=O)c1ccc2[nH]c(O)c(N=Nc3ccc(S(N)(=O)=O)cc3)c2c1 | > 25 µM | > 25 µM
30 | Cc1cc(O)c2c(c1)C(=O)C=CC2=O | 5.92 µM and 12.7 µM | 15.6 µM and 26.9 µM
31 | CC1(C)N=C(N)N=C(N)N1c1ccc(CCC(=O)Nc2ccc(S(=O)(=O)F)cc2)cc1 | 1.72 µM | > 100 µM
32 | N#CC1(c2ccc(NC(=O)c3cccnc3NCc3ccncc3)cc2)CCCC1 | 23.5 µM | > 74.3 µM
33 | Cn1nccc1Nc1nccc(-c2ccn([C@H](CO)c3ccc(Cl)c(F)c3)c(=O)c2)n1 | 24 µM | > 100 µM
34 | N#CC1c2ccccc2C=CN1C(=O)CCCl (configuration not stated) | 2.16 µM | 6.02 µM
35 | O=C1NC(=N[C@@H](CO)c2ccccc2)S/C1=C\c1ccc2ncccc2c1 | 4.92 µM | > 25 µM
36 | O=C1/C(=C/c2ccc(Cl)c(Cl)c2)CN(C(=O)CCN2CCC(=NO)CC2)C/C1=C\c1ccc(Cl)c(Cl)c1 | 1.61 µM | 3.18 µM
37 | CCN(CC)CCCNc1ccc(C)c2sc3ccccc3c(=O)c12 | 1.37 µM | 2.76 µM
38 | CCNc1nc(O)c(/C=C2\C=Nc3ncccc32)s1 | 2.78 µM | 95 µM
39 | O=C(/C=C/C12c3ccccc3C(c3ccccc31)C1C(=O)NC(=O)C12)c1ccccn1 (configuration not stated) | 2.35 µM | 5.31 µM
40 | CC1=C(C(=O)Nc2ccccc2)C(c2ccc(N(C)C)cc2)C(C(=O)Nc2ccccc2)=C(C)N1 |  | > 100 µM

Each molecule was assayed on HCC-2998 colon (assay: NCI anticancer screen, dose series, 48 h).

Row | SMILES | GI50 | TGI [µM]
41 | Cc1nn(-c2ccc(Cl)cc2)c2ncnc(N/N=C/c3ccccc3O)c12 | 0.464 µM and 0.742 µM | > 100
42 | COc1ccc2c(c1)C(=O)c1c-2c(Nc2ccccc2OC)nc2ccccc12 | > 100 µM | > 100
43 | COc1ccc2c(N)ncc(C#Cc3cc(C(=O)Nc4ccc(CN5CCN(C)CC5)c(C(F)(F)F)c4)cnc3C)c2c1 | 1.42 µM | 5.36
44 | COc1cc2c(N3CCN(C(=O)Nc4ccc(OC(C)C)cc4)CC3)ncnc2cc1OCCCN1CCCCC1 | 19.6 µM | 44.3
45 | Nc1ncc(Cc2ccc3c(c2)OCO3)c(N)n1 |  | > 100
46 | c1ccc(-c2[nH]ncc2-c2ccnc(-c3ccc(OCCn4ccnc4)cc3)c2)nc1 | > 25 µM | > 25
47 | O=C1c2cccc(Oc3ccccc3)c2C(=O)c2cccc(Oc3ccccc3)c21 | > 100 µM | > 100
48 | O=C(OCc1ccc2c(Br)cc(Br)c(O)c2n1)c1cc2ccccc2[nH]1 | 1.57 µM | 3.1
49 | CC(C)(CO)CNC(=O)c1ccc2[nH]c(O)c(N=Nc3ccc(S(N)(=O)=O)cc3)c2c1 | > 25 µM | > 25
